Reference: ChEMBL document CHEMBL5150031, “Targeting osteoarthritis-associated galectins and an induced effector class by a ditopic bifunctional reagent: Impact of its glycan part on binding measured in the tissue context” (Bioorg Med Chem, 2022)
Calls of active or inactive are those of the source. No cut-off for these calls is given here.

Assays:
[1] = biological target: T1, Collagenase 3 (Homo sapiens, UniProt P45452); assay: Inhibition of MMP13 (unknown origin) assessed as reduction in cleavage of colorimetric substrate incubated for 1 hr by colorimetric analysis
[2] = biological target: T1, Collagenase 3; assay: Inhibition of MMP13 (unknown origin) assessed as reduction in cleavage of colorimetric substrate by measuring remaining activity at 1000 nM incubated for 1 hr by colorimetric analysis relative to control
[3] = biological target: Galectin-1 (Mus musculus) (UniProt P16045); assay: Inhibition of biotinylated galectin-1 binding to C57BL/6 mouse kidney at 125 to 500 uM of lactose residue per molecule preincubated for 1 hr followed by incubation with tissue material for overnight by light microsocopy; format: tissue-based; settings: dose 125-500 µM
Sequence of Galectin-1 (Mus musculus) (P16045 whole entry): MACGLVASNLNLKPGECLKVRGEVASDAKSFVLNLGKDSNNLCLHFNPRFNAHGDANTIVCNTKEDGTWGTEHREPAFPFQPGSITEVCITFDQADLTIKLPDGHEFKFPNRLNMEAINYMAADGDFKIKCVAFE

[4] = species: Homo sapiens; assay: Inhibition of Alexa-Fluor-488 conjugated galectin-1/Alexa-Fluor-647 conjugated galectin-3 binding to human osteoarthritic cartilage at 4 mM of sugar preincubated for 1 hr followed by incubation with tissue material for overnight by 2-colour fluorescence microsocopy; format: tissue-based
[5] = Inhibition of biotinylated Galectin-1/3 (unknown origin) preincubated for 30 mins at room temperature followed by incubation at 37 degC for 1 hr by surface-immobilized glycoprotein asialofetuin based solid phase assay; parameters: species or system Homo sapiens
[6] = biological target: Galectin-3 (Mus musculus) (UniProt P16110); assay: Inhibition of biotinylated galectin-3 binding to C57BL/6 mouse kidney medulla at 125 to 500 uM of lactose residue per molecule preincubated for 1 hr followed by incubation with tissue material for overnight by light microsocopy; format: tissue-based; settings: Renal medulla, dose 125-500 µM
Sequence of Galectin-3 (Mus musculus) (P16110 whole entry): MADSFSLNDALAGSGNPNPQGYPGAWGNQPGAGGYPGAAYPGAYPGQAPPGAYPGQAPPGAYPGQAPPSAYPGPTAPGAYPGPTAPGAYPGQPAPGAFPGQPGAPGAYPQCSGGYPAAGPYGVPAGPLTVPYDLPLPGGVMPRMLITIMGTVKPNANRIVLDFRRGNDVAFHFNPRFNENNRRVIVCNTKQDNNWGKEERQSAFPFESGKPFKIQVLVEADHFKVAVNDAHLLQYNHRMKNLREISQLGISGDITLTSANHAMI

[7] = biological target: Galectin-3 (Mus musculus) (UniProt P16110); assay: Inhibition of Alexa-Fluor-647 conjugated galectin-3 binding to C57BL/6 mouse medulla at 2 mM of sugar preincubated for 1 hr followed by incubation with tissue material for overnight by 2-colour fluorescence microsocopy; format: tissue-based; settings: Renal medulla
[8] = biological target: T1, Collagenase 3; assay: Inhibition of MMP13 (unknown origin) assessed as reduction in cleavage of colorimetric substrate by measuring remaining activity at 10 nM incubated for 1 hr by colorimetric analysis relative to control
[9] = biological target: T1, Collagenase 3; assay: Inhibition of MMP13 (unknown origin) assessed as reduction in cleavage of colorimetric substrate by measuring remaining activity at 100 nM incubated for 1 hr by colorimetric analysis relative to control
[10] = species: Mus musculus; assay: Inhibition of Alexa-Fluor-488 conjugated galectin-1/Alexa-Fluor-647 conjugated galectin-3 binding to C57BL/6 mouse kidney cortex at 2 mM of sugar preincubated for 1 hr followed by incubation with tissue material for overnight by 2-colour fluorescence microsocopy; format: tissue-based
[11] = biological target: Galectin-3 (Homo sapiens) (UniProt P17931); assay: Inhibition of Alexa-Fluor-647 conjugated galectin-3 binding to human osteoarthritic cartilage at 4 mM of sugar preincubated for 1 hr followed by incubation with tissue material for overnight by 2-colour fluorescence microsocopy; format: tissue-based
Sequence of Galectin-3 (Homo sapiens) (P17931 whole entry): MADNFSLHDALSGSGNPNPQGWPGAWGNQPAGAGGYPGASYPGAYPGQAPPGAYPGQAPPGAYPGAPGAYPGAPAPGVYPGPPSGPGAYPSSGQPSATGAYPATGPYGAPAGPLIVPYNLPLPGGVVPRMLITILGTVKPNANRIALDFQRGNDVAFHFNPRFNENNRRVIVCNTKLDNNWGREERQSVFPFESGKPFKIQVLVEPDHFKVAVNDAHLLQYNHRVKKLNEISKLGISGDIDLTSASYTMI

[12] = biological target: Galectin-3 (Mus musculus) (UniProt P16110); assay: Inhibition of Alexa-Fluor-647 conjugated galectin-3 binding to C57BL/6 mouse kidney cortex at 2 mM of sugar preincubated for 1 hr followed by incubation with tissue material for overnight by 2-colour fluorescence microsocopy; format: tissue-based
[13] = species: Mus musculus; assay: Inhibition of Alexa-Fluor-488 conjugated galectin-1/Alexa-Fluor-647 conjugated galectin-3 binding to C57BL/6 mouse medulla at 2 mM of sugar preincubated for 1 hr followed by incubation with tissue material for overnight by 2-colour fluorescence microsocopy; format: tissue-based; settings: Renal medulla
[14] = species: Homo sapiens; assay: Inhibition of biotinylated Galectin-1/3 (unknown origin) preincubated for 30 mins at room temperature followed by incubation at 37 degC for 1 hr by surface-immobilized glycoprotein asialofetuin based solid phase assay relative to lactose; settings: time 90.0 min
[15] = biological target: Galectin-1 (Mus musculus) (UniProt P16045); assay: Inhibition of Alexa-Fluor-488 conjugated galectin-1 binding to C57BL/6 mouse kidney cortex at 2 mM of sugar preincubated for 1 hr followed by incubation with tissue material for overnight by 2-colour fluorescence microsocopy; format: tissue-based
[16] = biological target: Galectin-3 (Mus musculus) (UniProt P16110); assay: Inhibition of biotinylated galectin-3 binding to C57BL/6 mouse kidney cortex at 125 to 500 uM of lactose residue per molecule preincubated for 1 hr followed by incubation with tissue material for overnight by light microsocopy; format: tissue-based; settings: dose 125-500 µM
[17] = biological target: Galectin-1 (Mus musculus) (UniProt P16045); assay: Inhibition of Alexa-Fluor-488 conjugated galectin-1 binding to C57BL/6 mouse kidney medulla at 2 mM of sugar preincubated for 1 hr followed by incubation with tissue material for overnight by 2-colour fluorescence microsocopy; format: tissue-based; settings: Renal medulla
[18] = biological target: Galectin-1 (Homo sapiens) (UniProt P09382); assay: Inhibition of Alexa-Fluor-488 conjugated galectin-1 binding to human osteoarthritic cartilage at 4 mM of sugar preincubated for 1 hr followed by incubation with tissue material for overnight by 2-colour fluorescence microsocopy; format: tissue-based
Sequence of Galectin-1 (Homo sapiens) (P09382 whole entry): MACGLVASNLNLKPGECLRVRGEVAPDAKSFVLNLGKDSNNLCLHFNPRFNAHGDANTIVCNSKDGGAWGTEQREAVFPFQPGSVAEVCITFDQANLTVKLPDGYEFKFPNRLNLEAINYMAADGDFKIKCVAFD

Compound | IC50 [1] [µM] | inhibition [3] | inhibition [4] | IC50 [5] [µM] | inhibition [6] | inhibition [11] | Ratio [14] | inhibition [16] | inhibition [18] | other results
COc1ccc(S(=O)(=O)N(CC(=O)NO)CC(C)C)cc1 | 0.0052 | – | – | – | – | – | – | – | – | –
COc1ccc(S(=O)(=O)N(CCCCCCNC(=O)CCCCC(=O)NCCN(CCC(=O)NCCNC(=O)CCCCC(=O)NCCO[C@@H]2O[C@H](CO)[C@@H](O[C@@H]3O[C@H](CO)[C@H](O)[C@H](O)[C@H]3O)[C@H](O)[C@H]2O)CCC(=O)NCCNC(=O)CCCCC(=O)NCCO[C@@H]2O[C@H](CO)[C@@H](O[C@@H]3O[C@H](CO)[C@H](O)[C@H](O)[C@H]3O)[C@H](O)[C@H]2O)CC(=O)NO)cc1 | 0.0013 | Active | Active | 200 | Active | Active | 5.4 | Active | Active | Activity [2]: 2.7%; inhibition [7]: Active; Activity [8]: 15.2%; Activity [9]: 3.2%; inhibition [10]: Active; inhibition [12]: Active; inhibition [13]: Active; inhibition [15]: Active; inhibition [17]: Active
OC[C@H]1O[C@@H](O[C@H]2[C@H](O)[C@@H](O)[C@H](n3cc(COC[C@@H](OCc4cn([C@@H]5O[C@H](CO)[C@@H](O[C@@H]6O[C@H](CO)[C@H](O)[C@H](O)[C@H]6O)[C@H](O)[C@H]5O)nn4)[C@@H](O)[C@H](O)[C@@H](COCc4cn([C@@H]5O[C@H](CO)[C@@H](O[C@@H]6O[C@H](CO)[C@H](O)[C@H](O)[C@H]6O)[C@H](O)[C@H]5O)nn4)OCc4cn([C@@H]5O[C@H](CO)[C@@H](O[C@@H]6O[C@H](CO)[C@H](O)[C@H](O)[C@H]6O)[C@H](O)[C@H]5O)nn4)nn3)O[C@@H]2CO)[C@H](O)[C@@H](O)[C@H]1O | – | Active | – | 420 | Active | – | 2.5 | Active | – | –
OC[C@H]1O[C@@H](O[C@H]2[C@H](O)[C@@H](O)[C@H](n3cc(COC[C@@H](OCc4cn([C@@H]5O[C@H](CO)[C@@H](O[C@@H]6O[C@H](CO)[C@H](O)[C@H](O)[C@H]6O)[C@H](O)[C@H]5O)nn4)[C@@H](OCc4cn([C@@H]5O[C@H](CO)[C@@H](O[C@@H]6O[C@H](CO)[C@H](O)[C@H](O)[C@H]6O)[C@H](O)[C@H]5O)nn4)[C@H](OCc4cn([C@@H]5O[C@H](CO)[C@@H](O[C@@H]6O[C@H](CO)[C@H](O)[C@H](O)[C@H]6O)[C@H](O)[C@H]5O)nn4)[C@@H](COCc4ccccc4)OCc4ccccc4)nn3)O[C@@H]2CO)[C@H](O)[C@@H](O)[C@H]1O | – | Active | – | 220 | Active | – | 4.9 | Active | – | –
LACTOSE, ANHYDROUS [listing 1 of 2 here] | – | – | Active | – | – | Active | – | – | Active | –
LACTOSE, ANHYDROUS [listing 2 of 2 here] | – | – | – | 1070 | – | – | – | – | – | –
